Data from ChEMBL document CHEMBL1201862, “PubChem BioAssay data set” (2004).
Active and inactive are the calls of the source.

Assays:
[1] = reduction of Shn3 3'UTR-driven luciferase in osteoblasts – cell-based, Clone20 osteoblasts, firefly luciferase, cherry-picked, dose response (AID 624132); format: functional;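 note: firefly luciferase luminescence from reporter carrying the Shn3 3'UTR in osteoblasts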
[2] = loss of viability in HepG2 cells – cell-based, CellTiter-Glo, cherry-picked, cytotoxicity control for Shn3 inhibitor project, dose response (AID 624134); format: functional
[3] = non-specific 3'UTR reporter inhibition in Clone20-Shn3RL – cell-based, Renilla luciferase, cherry-picked, counter-screen for Shn3 inhibitor project, dose response (AID 624133); format: functional
[4] = Trypanosoma cruzi growth suppression in host cells – NIH3T3 host cells, beta-gal luminescence, confirmation (AID 2044); format: functional, cell-based;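 note: intracellular parasites grown in NIH/3T3 mouse fibroblasts as host cells; luminescent beta-galactosidase reporter signal from transgenic T. cruzi replicating inside host cells; inhibitors lower the luminescence signal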
[5] = NIH3T3 cell viability loss – ATP luminescence, mouse fibroblasts, counter-screen, dose response (AID 2010); format: functional, cell-based;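 note: cells exposed to compound for about 90 hours before reading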
[6] = target: T1, Fatty acid synthase (Homo sapiens, UniProt P49327); assay: inhibition of human FAS-TE enzyme activity – biochemical, endpoint fluorescence intensity, uHTS hits, dose response (AID 624327); format: functional;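 note: fluorescence from hydrolysis of an O-methyl fluorescein acyl ester substrate by the enzyme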
T1 sequence (P49327 whole entry): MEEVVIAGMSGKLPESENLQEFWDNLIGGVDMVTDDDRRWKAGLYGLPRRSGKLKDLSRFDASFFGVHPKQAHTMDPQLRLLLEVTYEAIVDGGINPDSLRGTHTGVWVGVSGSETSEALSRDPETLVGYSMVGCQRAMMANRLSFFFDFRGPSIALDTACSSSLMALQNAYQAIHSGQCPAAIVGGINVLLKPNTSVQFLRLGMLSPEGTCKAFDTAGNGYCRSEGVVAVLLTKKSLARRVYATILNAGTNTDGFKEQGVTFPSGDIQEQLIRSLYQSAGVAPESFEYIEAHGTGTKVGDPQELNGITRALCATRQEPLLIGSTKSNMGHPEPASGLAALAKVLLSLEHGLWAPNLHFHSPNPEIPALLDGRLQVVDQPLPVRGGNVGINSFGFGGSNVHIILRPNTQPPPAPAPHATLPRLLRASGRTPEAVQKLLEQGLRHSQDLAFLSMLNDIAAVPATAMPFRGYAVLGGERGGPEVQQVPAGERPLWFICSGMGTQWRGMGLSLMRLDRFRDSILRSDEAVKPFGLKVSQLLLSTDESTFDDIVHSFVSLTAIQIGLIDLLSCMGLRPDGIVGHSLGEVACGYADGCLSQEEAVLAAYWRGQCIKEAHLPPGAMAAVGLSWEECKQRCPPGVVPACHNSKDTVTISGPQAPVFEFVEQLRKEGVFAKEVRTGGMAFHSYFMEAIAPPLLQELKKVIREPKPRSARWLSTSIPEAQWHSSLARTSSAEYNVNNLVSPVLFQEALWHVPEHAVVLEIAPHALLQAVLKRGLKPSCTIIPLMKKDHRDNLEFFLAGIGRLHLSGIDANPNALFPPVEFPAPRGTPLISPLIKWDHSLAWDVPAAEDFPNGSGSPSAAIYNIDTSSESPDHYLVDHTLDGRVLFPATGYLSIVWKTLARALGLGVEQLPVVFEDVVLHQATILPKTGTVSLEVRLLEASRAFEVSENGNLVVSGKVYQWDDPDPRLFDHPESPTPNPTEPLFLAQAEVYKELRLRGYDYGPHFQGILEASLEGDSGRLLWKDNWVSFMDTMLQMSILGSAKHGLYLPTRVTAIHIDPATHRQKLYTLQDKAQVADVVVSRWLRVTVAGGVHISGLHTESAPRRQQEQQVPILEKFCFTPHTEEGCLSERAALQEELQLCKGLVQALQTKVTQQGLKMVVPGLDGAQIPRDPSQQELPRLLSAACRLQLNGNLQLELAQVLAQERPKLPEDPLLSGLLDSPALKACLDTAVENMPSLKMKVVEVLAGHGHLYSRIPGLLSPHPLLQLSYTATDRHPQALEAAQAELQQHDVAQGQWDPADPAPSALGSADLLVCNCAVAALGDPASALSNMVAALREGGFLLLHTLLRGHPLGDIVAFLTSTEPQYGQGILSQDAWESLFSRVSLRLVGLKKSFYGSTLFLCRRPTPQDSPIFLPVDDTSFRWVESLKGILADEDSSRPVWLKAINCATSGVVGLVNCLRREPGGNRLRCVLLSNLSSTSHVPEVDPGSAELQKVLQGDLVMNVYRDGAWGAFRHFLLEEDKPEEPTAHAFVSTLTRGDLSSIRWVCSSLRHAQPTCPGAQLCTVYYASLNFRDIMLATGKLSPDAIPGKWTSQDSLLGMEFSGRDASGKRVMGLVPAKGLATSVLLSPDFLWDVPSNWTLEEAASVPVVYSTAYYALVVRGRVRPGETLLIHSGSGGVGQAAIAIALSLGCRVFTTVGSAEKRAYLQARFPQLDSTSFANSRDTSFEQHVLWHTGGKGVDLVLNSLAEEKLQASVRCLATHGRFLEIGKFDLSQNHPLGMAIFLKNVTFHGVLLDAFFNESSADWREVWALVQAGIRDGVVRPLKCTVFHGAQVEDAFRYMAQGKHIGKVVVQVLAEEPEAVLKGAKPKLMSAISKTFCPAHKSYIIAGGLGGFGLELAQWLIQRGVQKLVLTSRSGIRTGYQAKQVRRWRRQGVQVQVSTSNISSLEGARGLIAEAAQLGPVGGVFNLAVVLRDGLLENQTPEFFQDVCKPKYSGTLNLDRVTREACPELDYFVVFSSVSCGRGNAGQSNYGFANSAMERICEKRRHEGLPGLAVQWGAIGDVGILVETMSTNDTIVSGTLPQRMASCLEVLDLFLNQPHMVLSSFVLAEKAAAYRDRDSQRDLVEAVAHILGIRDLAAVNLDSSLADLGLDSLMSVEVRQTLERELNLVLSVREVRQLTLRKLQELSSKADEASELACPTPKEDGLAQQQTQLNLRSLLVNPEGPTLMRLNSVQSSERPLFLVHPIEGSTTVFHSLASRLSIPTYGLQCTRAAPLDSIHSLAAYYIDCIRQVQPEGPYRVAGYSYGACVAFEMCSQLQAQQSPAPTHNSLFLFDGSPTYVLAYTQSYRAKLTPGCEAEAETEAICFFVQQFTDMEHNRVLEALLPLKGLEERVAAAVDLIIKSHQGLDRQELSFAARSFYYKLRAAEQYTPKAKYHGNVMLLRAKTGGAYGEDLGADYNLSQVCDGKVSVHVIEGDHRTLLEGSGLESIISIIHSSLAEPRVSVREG

[7] = target: T1, Fatty acid synthase; assay: inhibition of human FAS-TE enzyme activity – biochemical, kinetic fluorescence intensity, dose response (AID 624326); format: functional;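 note: rate of fluorescence rise from hydrolysis of a fluorogenic O-methyl fluorescein ester substrate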
[8] = system: HEK293; assay: EBV LMP1 TES2 canonical NF-kB signalling blockers – cell-based, HEK293, luciferase, cherry-pick, dose response (AID 588343); format: functional; conditions: Homo sapiens
[9] = target: Large T antigen (Simian virus 40, UniProt P03070); format: functional, Betapolyomavirus macacae;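 note: Confirmatory-stage PubChem screen for compounds that inhibit SV40 T antigen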
Chain of Large T antigen (P03070 whole entry): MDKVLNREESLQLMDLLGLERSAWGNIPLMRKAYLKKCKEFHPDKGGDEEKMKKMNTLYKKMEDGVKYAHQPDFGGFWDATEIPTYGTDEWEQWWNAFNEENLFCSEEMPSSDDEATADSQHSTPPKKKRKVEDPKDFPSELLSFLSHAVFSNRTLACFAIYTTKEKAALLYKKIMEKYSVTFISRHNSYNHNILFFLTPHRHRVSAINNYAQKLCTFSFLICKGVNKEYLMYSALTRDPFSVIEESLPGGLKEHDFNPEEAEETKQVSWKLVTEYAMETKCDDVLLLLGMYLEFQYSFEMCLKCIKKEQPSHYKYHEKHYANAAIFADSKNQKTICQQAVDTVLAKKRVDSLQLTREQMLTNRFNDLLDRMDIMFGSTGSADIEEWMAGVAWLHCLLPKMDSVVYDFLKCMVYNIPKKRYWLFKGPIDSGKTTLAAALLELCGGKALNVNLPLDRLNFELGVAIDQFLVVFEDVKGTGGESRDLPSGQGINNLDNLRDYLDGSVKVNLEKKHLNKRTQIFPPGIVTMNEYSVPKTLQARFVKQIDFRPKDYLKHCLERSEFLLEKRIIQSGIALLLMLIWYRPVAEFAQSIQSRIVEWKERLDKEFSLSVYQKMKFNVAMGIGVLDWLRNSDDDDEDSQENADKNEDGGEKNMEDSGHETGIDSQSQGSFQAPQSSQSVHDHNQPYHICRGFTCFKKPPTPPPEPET

[10] = cells; format: functional, cell-based
[11] = cells; format: functional, cell-based; remark: listed apart in the source
[12] = target: T2, Heat shock factor protein 1 (Mus musculus, UniProt P38532); assay: enhancement of HSF1-driven luciferase signal – cell-based, NIH3T3, luminescence, dose retest, confirmation (AID 435004); format: functional;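 note: stress induced by proteasome inhibitor MG132 added 30 min after compound; luciferase reporter driven by HSF1 response element in NIH3T3 cells; actives raise luminescence as potentiators of the MG132 stress response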
T2 sequence (P38532 whole entry): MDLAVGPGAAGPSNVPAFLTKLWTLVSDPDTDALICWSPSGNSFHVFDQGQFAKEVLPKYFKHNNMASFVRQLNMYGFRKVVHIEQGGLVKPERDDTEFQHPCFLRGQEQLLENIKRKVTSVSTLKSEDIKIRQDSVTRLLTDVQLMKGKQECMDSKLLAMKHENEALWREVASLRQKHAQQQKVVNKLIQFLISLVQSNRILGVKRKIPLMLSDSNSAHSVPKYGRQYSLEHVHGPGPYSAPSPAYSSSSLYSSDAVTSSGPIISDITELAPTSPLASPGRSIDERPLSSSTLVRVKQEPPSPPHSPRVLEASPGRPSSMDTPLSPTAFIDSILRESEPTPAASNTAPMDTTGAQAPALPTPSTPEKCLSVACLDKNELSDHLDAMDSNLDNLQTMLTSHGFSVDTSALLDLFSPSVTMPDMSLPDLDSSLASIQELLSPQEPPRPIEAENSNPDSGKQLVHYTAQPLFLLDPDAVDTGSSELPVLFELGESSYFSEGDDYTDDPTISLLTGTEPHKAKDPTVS

[13] = system: INS1; assay: INS-1E survival protection against cytokine death – cell-based, luminescence, retest, dose response (AID 449756); format: functional; conditions: Rattus norvegicus;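 note: cell death triggered by IL-1 beta plus TNF-alpha plus IFN-gamma mixture; protective hits raise ATP signal compared with cytokine alone wells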
[14] = target: T3, Calpain-2 catalytic subunit (Sus scrofa, UniProt P43367); assay: m-calpain protease blockers, concentration series – biochemical, fluorogenic peptide substrate, dose response (AID 1420); format: functional
T3 sequence (P43367 whole entry): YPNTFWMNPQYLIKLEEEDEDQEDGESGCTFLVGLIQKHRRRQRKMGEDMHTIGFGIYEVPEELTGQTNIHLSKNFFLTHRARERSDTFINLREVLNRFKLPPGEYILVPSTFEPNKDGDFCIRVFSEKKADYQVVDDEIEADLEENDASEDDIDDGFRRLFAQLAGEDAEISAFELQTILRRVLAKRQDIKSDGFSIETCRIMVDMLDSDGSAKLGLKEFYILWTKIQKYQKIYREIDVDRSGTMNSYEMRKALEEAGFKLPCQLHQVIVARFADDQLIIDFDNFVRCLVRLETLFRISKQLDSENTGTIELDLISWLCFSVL

[15] = system: Streptococcus sp. 'group A'; assay: Streptococcus pyogenes SK(-)GAS viability under kanamycin – luminescence, BacTiterGlo, confirmation, counter-screen for streptokinase expression inhibitor project, dose response (AID 1900); format: functional, organism-based
[16] = target: T4, Streptokinase A (Streptococcus pyogenes serotype M1, UniProt P10520); assay: viability-normalized secreted streptokinase activity reduction – plasminogen activation absorbance, OD405, dose response (AID 1914); format: functional, Streptococcus pyogenes M1 GAS;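 note: secreted streptokinase activity via plasminogen activation per viability signal from cell pellet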
T4 sequence (P10520 whole entry): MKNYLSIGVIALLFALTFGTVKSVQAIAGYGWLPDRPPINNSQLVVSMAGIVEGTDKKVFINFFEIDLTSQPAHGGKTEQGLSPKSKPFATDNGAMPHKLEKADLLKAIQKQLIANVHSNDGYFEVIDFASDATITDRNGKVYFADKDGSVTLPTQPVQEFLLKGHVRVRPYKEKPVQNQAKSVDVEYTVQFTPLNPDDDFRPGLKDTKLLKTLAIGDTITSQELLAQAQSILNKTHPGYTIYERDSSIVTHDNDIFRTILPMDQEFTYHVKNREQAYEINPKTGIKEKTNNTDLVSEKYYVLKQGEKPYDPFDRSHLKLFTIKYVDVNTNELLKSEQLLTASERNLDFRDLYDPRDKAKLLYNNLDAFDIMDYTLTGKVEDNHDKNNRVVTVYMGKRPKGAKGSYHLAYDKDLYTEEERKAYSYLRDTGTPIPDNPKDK

[17] = microbe, parasite or virus in culture; format: functional; conditions: Mycobacterium tuberculosis
[18] = system: Streptococcus; assay: GAS UMAA2166 growth inhibition – luminescence, BacTiterGlo, counter-screen for streptokinase expression inhibitor project, dose response (AID 1915); format: functional, organism-based;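 note: potency for reduction of bacterial viability or growth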
[19] = Luminescence Cell-Based Dose Retest to Confirm Inhibitors of Cancer Stem Cells. [Related pubchem assays (depositor defined):AID2717, AID2721]; format: functional; conditions: Homo sapiens

In the case of `CN1CCN(S(=O)(=O)c2ccc(Sc3nnnn3-c3ccccc3)c([N+](=O)[O-])c2)CC1`, the AC50 [1] is reported as 3.9 µM (active), the AC50 [2] is reported as > 70 µM (inactive) and the AC50 [3] is reported as 7.28 µM (active).
In the case of `Cc1ccc(-n2ncc3c(N4CCN(c5ccc(F)cc5)CC4)ncnc32)c(C)c1`, the AC50 [1] is reported as 3.24 µM (active), the AC50 [2] is reported as 2.94 µM (active) and the AC50 [3] is reported as 5.66 µM (active).
With `O=C(NCCOc1ccccc1)c1cc(C(=O)NCCOc2ccccc2)cc([N+](=O)[O-])c1` the EC50 [4] was 1.28 µM (active), the EC50 [5] was > 60 µM (not active) and the IC50 [6] was 5.6 µM (active). The IC50 [7] was 2.75 µM (active).
For `COCCn1c(SCC(=O)NCc2ccco2)nnc1-c1c[nH]c2ccccc12`, the AC50 [8] was 283 µM (active).
With `COc1cc(/C=N/NC(=O)C2COc3ccccc3O2)ccc1O` (configuration not stated) the IC50 [9] was 8.24 µM (active).
For `Cc1cccc(/C=N\NC(=O)c2ccc(Cl)cc2)c1O`, the EC50 [10] was > 350 µM (not active), the EC50 [4] was 0.877 µM (active) and the EC50 [11] was 6.37 µM (active). For the same compound, the EC50 [5] was 9.57 µM (active), the EC50 [12] was 91 µM (active) and the AC50 [13] was 597 nM (active).
In the case of `Oc1ccc(N2CCN(C(c3ccccn3)c3nnnn3C3CCCC3)CC2)cc1` (configuration not stated), the IC50 [9] is reported as 6.25 µM (active).
For `COc1cc(/C=N/NC(=O)c2nnn(-c3nonc3N)c2-c2cccs2)ccc1O`, the IC50 [9] was 19.4 µM (active).
With `O=Cc1cccn1-c1ccc(O)cc1` the IC50 [9] was > 100 µM (active).
For `O=C(O)c1cc(NN=Nc2ccc(Br)cc2)cc([N+](=O)[O-])c1`, the IC50 [14] was 12.6 µM (not active), the IC50 [6] was 5.49 µM (active) and the IC50 [7] was 6.81 µM (active).
With `N#Cc1c(-c2ccccc2)c(-c2ccccc2)nn(CC(=O)NNC(=O)Nc2ccc(Cl)c(Cl)c2)c1=O` the EC50 [15] was 5.78 µM (active), the EC50 [16] was 4 µM (active) and the CC50 [17] was 32.9 µM (active). The EC50 [18] was 103 µM (active), the AC50 [19] was 1.75 µM (active) and the IC50 [6] was 7.91 µM (active). The IC50 [7] was 8.07 µM (active).
For `O=S(=O)(c1ccc(C(F)(F)F)cc1)N1CCC(c2nc(O)c3nnn(Cc4ccc(F)cc4)c3n2)CC1`, the EC50 [10] was > 350 µM (not active) and the EC50 [11] was > 350 µM (not active).
In the case of `O=C(O)c1cc(N/N=C/c2cccc3ccccc23)ccc1Cl`, the IC50 [9] is reported as > 100 µM (active).
In the case of `c1cnc(N2CCN(c3ccc4ccccc4n3)CC2)nc1`, the EC50 [10] is reported as > 350 µM (not active), the EC50 [11] is reported as 11.9 µM (active) and the EC50 [12] is reported as > 260 µM (inactive).
